Legend:
Format in all cases: biochemical
Conditions in all cases: continuous assay 60 min, reaction initiated by adding enzyme
mICE = target: T1, mICE (Mus musculus, UniProt P29452); experiment: Dissociation constant Ki and irreversible rate constant k3 for irreversible inhibitors, ICE
T1 sequence (P29452 123-296 limits assumed): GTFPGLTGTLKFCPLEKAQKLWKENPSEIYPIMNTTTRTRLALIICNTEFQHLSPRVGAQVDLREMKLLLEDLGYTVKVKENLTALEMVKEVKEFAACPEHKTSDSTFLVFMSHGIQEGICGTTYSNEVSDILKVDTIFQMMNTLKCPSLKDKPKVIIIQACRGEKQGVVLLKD
T1 sequence (P29452 315-402 limits assumed): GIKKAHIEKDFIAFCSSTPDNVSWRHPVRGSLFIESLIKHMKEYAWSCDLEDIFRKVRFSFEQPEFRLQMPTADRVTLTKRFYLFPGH
Description: (§1) For the irreversible inhibition of a ICE/ced-3 Family Protease enzyme with a competitive irreversible inhibitor; using the model represented by the following formulas: […]
(§2) The product formation at time t may be expressed as:
(§3) [formula] where E, I, EI and E-I denote the active enzyme, inhibitor, non-covalent enzyme-inhibitor complex and covalent enzyme-inhibitor adduct, respectively. The Ki value is the overall dissociation constant of the reversible binding steps, and k3 is the irreversible rate constant. The [S] and Ks values are the substate concentration and dissociation constant of the substrate bound to the enzyme, respectively. [E]^T is the total enzyme concentration.
(§4) The above equations were used to determine the Ki and k3 values of a given inhibitor bound to a ICE/ced-3 family protease. Thus, a continuous assay was run for sixty minutes at various concentrations of the inhibitor and the substrate. The assay was formulated essentially the same as described above for generating the data in Table 1, except that the reaction was initiated by adding the enzyme to the substrate-inhibitor mixture. The Ki and k3 values were obtained by simulating the product AMC formation as a function of time according to Equation 1.
(§5) The reference compound for this assay was Cbz-ValAlaAsp-CH2F and the values are denoted in Table 2 as “Reference”. The Ki values in Table 2 are in micromolar (μM). The k3/Ki values are in moles^−1 seconds^−1 (M^−1s^−1).

CPP32 = target: T2, CPP32 (Homo sapiens, UniProt P42574); experiment: Dissociation constant Ki and irreversible rate constant k3 for irreversible inhibitors, CPP32
T2 sequence (P42574 29-175 limits assumed): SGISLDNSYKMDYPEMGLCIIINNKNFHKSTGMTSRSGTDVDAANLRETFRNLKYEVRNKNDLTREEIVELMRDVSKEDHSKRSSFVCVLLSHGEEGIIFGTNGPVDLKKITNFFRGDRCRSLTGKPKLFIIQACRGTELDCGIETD
T2 sequence (P42574 176-277 limits assumed): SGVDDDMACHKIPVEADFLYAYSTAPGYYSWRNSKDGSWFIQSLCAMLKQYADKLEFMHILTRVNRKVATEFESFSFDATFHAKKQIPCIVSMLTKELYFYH
Description: as §1, §2, §3, §4, §5

MCH-2 = target: T3, MCH-2 (Homo sapiens, UniProt P55212); experiment: Dissociation constant Ki and irreversible rate constant k3 for irreversible inhibitors, Mch2
T3 sequence (P55212 24-179 limits assumed): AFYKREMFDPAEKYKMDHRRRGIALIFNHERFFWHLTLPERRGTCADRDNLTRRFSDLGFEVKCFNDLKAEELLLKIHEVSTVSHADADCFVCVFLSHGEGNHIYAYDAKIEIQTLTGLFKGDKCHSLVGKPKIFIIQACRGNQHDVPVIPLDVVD
T3 sequence (P55212 194-293 limits assumed): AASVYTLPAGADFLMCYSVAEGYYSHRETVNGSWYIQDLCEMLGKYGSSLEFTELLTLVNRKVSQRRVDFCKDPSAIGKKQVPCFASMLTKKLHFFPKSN
Description: as §1, §2, §3, §4, §5

MCH-5 = MCH-5 (Homo sapiens, UniProt Q14790); experiment: Dissociation constant Ki and irreversible rate constant k3 for irreversible inhibitors, Mch5
Description: as §1, §2, §3, §4, §5

Sequence of MCH-5 (Q14790 217-374 limits assumed, species assumed): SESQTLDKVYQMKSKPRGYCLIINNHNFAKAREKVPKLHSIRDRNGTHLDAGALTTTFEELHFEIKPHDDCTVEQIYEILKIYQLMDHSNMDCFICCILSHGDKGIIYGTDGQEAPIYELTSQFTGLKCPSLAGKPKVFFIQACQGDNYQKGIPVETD
Sequence of MCH-5 (Q14790 385-479 limits assumed, species assumed): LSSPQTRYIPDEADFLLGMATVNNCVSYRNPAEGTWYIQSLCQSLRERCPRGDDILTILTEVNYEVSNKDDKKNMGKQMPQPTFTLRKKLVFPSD

Structure (SMILES)	Ki (mICE)	mICE k3/Ki (mICE)	CPP32 k3/Ki (CPP32)	Ki (CPP32)	Ki (MCH-2)	MCH-2 k3/Ki (MCH-2)	Ki (MCH-5)	MCH-5 k3/Ki (MCH-5)
C[C@H](NC(=O)COc1ccc2ccccc2c1)C(=O)NC(CC(=O)O)C(=O)COc1c(F)c(F)cc(F)c1F (some centres unmarked) [Example 176]	480 nM	11,100 M^−1s^−1	4,330 M^−1s^−1	3080 nM	1260 nM	1,330 M^−1s^−1	1160 nM	684 M⁻¹ s⁻¹
CC(C)C[C@H](NC(=O)COc1c(C(=O)O)ccc2ccccc12)C(=O)N[C@@H](CC(=O)O)C(=O)COc1c(F)c(F)cc(F)c1F [Example 167]	501 nM	21,300 M^−1s^−1	56,200 M^−1s^−1	89 nM	42 nM	52,500 M^−1s^−1	126 nM	13,600 M^−1s^−1
CC(C)[C@H](NC(=O)COc1ccc2ccccc2c1)C(=O)N[C@@H](CC(=O)O)C(=O)COc1c(F)cc(F)cc1F [Example 156]	438 nM	20,200 M^−1s^−1	49,700 M^−1s^−1	148 nM	52 nM	14,900 M^−1s^−1	293 nM	3,990 M^−1s^−1
O=C(O)CC(NC(=O)[C@@H]1Cc2ccccc2N1C(=O)COc1cccc2ccccc12)C(=O)CF (stereo partly drawn) [Example 61, (2′S,3RS)-3-[N-((1-Naphthyloxy)Acetyl)Indoline-2′-Carbonyl]Amino-5-Fluoro-4-Oxopentanoic Acid]	148 nM	93,200 M^−1s^−1	28,300 M^−1s^−1	360 nM	–	–	217 nM	10,100 M^−1s^−1
CC(C)[C@H](NC(=O)COc1cccc2ccccc12)C(=O)NC(CC(=O)O)C(=O)CF (mixture of isomers) [Example 53, (3RS)-3-[N-((1-Naphthyloxy)Acetyl)Valinyl]Amino-5-Fluoro-4-Oxopentanoic Acid]	53 nM	129,000 M^−1s^−1	207,000 M^−1s^−1	79 nM	38 nM	36,800 M^−1s^−1	40 nM	71,700 M^−1s^−1
CC(C)[C@H](NC(=O)COc1cccc2ccccc12)C(=O)N[C@@H](CC(=O)O)C(=O)COP(C)(C)=O [Example 105]	413 nM	18,000 M^−1s^−1	44,900 M^−1s^−1	341 nM	233 nM	6,090 M^−1s^−1	160 nM	3,700 M^−1s^−1
CC(C)[C@H](NC(=O)CCOc1cccc2ccccc12)C(=O)N[C@@H](CC(=O)O)C(=O)COc1cc(C(F)(F)F)n(-c2ccccc2)n1 [Example 159]	1370 nM	4,580 M^−1s^−1	11,700 M^−1s^−1	1180 nM	113 nM	15,000 M^−1s^−1	10700 nM	86 M⁻¹ s⁻¹
CC(C)[C@H](NC(=O)COc1cccc2ccccc12)C(=O)N[C@@H](CC(=O)O)C(=O)COc1c(F)c(F)cc(F)c1F [Example 79]	91 nM	77,500 M^−1s^−1	268,000 M^−1s^−1	42 nM	6 nM	78,900 M^−1s^−1	34 nM	30,200 M^−1s^−1
O=C(O)CC(NC(=O)[C@@H]1Cc2ccccc2CN1C(=O)COc1cccc2ccccc12)C(=O)CF (mixture of isomers) [Example 60]	373 nM	33,500 M^−1s^−1	8,440 M^−1s^−1	758 nM	–	–	467 nM	5,780 M^−1s^−1

Further lines, results first:

Ki (mICE)	mICE k3/Ki (mICE)	CPP32 k3/Ki (CPP32)	Ki (CPP32)	Ki (MCH-2)	MCH-2 k3/Ki (MCH-2)	Ki (MCH-5)	MCH-5 k3/Ki (MCH-5)	Structure (SMILES)
324 nM	8,740 M^−1s^−1	127,000 M^−1s^−1	46 nM	54 nM	0 M⁻¹ s⁻¹	4670 nM	0 M⁻¹ s⁻¹	CC(C)[C@H](NC(=O)COc1cccc2ccccc12)C(=O)N[C@@H](CC(=O)O)C(=O)COc1c(-c2ccccc2)oc2ccccc2c1=O [Example 115]
280 nM	11,900 M^−1s^−1	35,800 M^−1s^−1	135 nM	1250 nM	250 M⁻¹ s⁻¹	1080 nM	770 M⁻¹ s⁻¹	CC(C)[C@H](NC(=O)COc1cccc2ccccc12)C(=O)N[C@@H](CC(=O)O)C(=O)COc1ccc(F)c(F)c1F [Example 74]
263 nM	43,700 M^−1s^−1	698,000 M^−1s^−1	16 nM	9 nM	400,000 M^−1s^−1	127 nM	9,340 M^−1s^−1	CC(C)[C@H](NC(=O)COc1ccccc1-c1ccccc1)C(=O)N[C@@H](CC(=O)O)C(=O)COC(=O)c1c(Cl)cccc1Cl [Example 150]
262 nM	3,630 M^−1s^−1	19,200 M^−1s^−1	62 nM	153 nM	2,400 M^−1s^−1	235 nM	4,260 M^−1s^−1	CC(C)[C@H](NC(=O)COc1cccc2ccccc12)C(=O)N[C@@H](CC(=O)O)C(=O)COc1ccccc1 [Example 64]
308 nM	6,500 M^−1s^−1	21,900 M^−1s^−1	220 nM	2160 nM	230 M⁻¹ s⁻¹	2870 nM	170 M⁻¹ s⁻¹	Cc1cc(OCC(=O)[C@H](CC(=O)O)NC(=O)[C@@H](NC(=O)COc2cccc3ccccc23)C(C)C)cc(=O)o1 [Example 111]
126 nM	42,500 M^−1s^−1	144,000 M^−1s^−1	54 nM	70 nM	5,800 M^−1s^−1	155 nM	6,340 M^−1s^−1	COC(=O)c1cc(OCC(=O)[C@H](CC(=O)O)NC(=O)[C@@H](NC(=O)COc2cccc3ccccc23)C(C)C)no1 [Example 144]
592 nM	2,170 M^−1s^−1	9,240 M^−1s^−1	106 nM	862 nM	110 M⁻¹ s⁻¹	1030 nM	150 M⁻¹ s⁻¹	CC(C)[C@H](NC(=O)COc1cccc2ccccc12)C(=O)N[C@@H](CC(=O)O)C(=O)COc1cc(F)cc(F)c1 [Example 73]
147 nM	37,900 M^−1s^−1	140,000 M^−1s^−1	41 nM	37 nM	60,400 M^−1s^−1	105 nM	9,890 M^−1s^−1	CC(C)[C@H](NC(=O)COc1cccc2ccccc12)C(=O)N[C@@H](CC(=O)O)C(=O)COP(C)(=O)c1ccc(F)cc1 (some centres unmarked) [Example 108]
79 nM	52,100 M^−1s^−1	725,000 M^−1s^−1	12 nM	12 nM	56,900 M^−1s^−1	12 nM	17,000 M^−1s^−1	CC(C)[C@H](NC(=O)COc1cccc2ccccc12)C(=O)N[C@@H](CC(=O)O)C(=O)COC(=O)c1c(Cl)cccc1Cl [Example 63]
